Data as given in ChEMBL document CHEMBL3400000, “The discovery of potent agonists for GPR88, an orphan GPCR, for the potential treatment of CNS disorders” (Bioorg Med Chem Lett, 2015).
pEC50: −log10 of the molar value.

The compounds below were run against G protein-coupled receptor 88 (Homo sapiens, UniProt Q9GZN0) (assay: Agonist activity at GPR88 (unknown origin) transfected into cells assessed as cAMP accumulation by HTRF assay).
Assay type: functional

G protein-coupled receptor 88, sequence (Q9GZN0 whole entry): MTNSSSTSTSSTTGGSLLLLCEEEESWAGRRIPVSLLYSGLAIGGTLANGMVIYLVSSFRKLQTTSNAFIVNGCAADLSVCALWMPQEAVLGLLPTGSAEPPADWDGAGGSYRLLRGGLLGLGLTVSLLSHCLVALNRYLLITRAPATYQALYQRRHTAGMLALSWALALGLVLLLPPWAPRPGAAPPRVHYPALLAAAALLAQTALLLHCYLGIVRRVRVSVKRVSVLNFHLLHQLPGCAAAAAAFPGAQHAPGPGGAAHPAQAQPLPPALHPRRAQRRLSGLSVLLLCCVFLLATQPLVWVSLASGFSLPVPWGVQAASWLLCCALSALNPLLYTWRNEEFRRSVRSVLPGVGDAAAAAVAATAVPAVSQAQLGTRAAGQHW

pEC50 | SMILES
7.03 | CC[C@H](C)[C@H](N)CN(C(=O)[C@@H]1C[C@H]1c1ccccc1)c1ccc(-c2ccc(Oc3ccccc3)cc2)cc1
6.24 | CC[C@H](C)[C@H](N)CN(C(=O)[C@@H]1C[C@H]1c1ccoc1)c1ccc(-c2ccccc2)cc1
< 4.60 | CC[C@H](C)[C@H](N)CN(C(=O)[C@@H]1C[C@H]1c1ccccc1Cl)c1ccc(-c2ccccc2)cc1
9.24 | NC1(CN(C(=O)[C@@H]2C[C@H]2c2ccccc2)c2ccc(-c3ccccc3)cc2)CCCC1
9.18 | N[C@H](CN(C(=O)[C@@H]1C[C@H]1c1ccccc1)c1ccc(-c2ccccc2)cc1)C1CCCCC1
8.33 | CCC(C)CNCCN(C(=O)[C@@H]1C[C@H]1c1ccccc1)c1ccc(-c2ccccc2)cc1 (some centres undefined)
6.01 | CC[C@H](C)[C@H](N)CN(C(=O)[C@@H]1C[C@H]1c1ccccc1)c1ccc(-c2ccc(C(=O)N(C)C)cc2)cc1
5.26 | CC[C@H](C)[C@H](N)CN(C(=O)[C@@H]1C[C@H]1c1ccccc1)c1ccc(-c2ccc(NC(C)=O)cc2)cc1
6.55 | CC[C@H](C)[C@H](N)CN(C(=O)[C@@H]1C[C@H]1c1ccccc1)c1ccc(-c2ccc(COC(C)(C)C)cc2)cc1
5.96 | COc1cccc(-c2ccc(N(C[C@@H](N)CC(C)C)C(=O)[C@@H]3C[C@H]3c3ccccc3)cc2)c1
6.05 | CC(C)C[C@H](N)CN(C(=O)[C@@H]1C[C@H]1c1ccccc1)c1ccc(-c2ccc(F)cc2)cc1
7.96 | CC(C)(C)[C@H](N)CN(C(=O)[C@@H]1C[C@H]1c1ccccc1)c1ccc(-c2ccccc2)cc1
5.49 | COc1ccccc1-c1ccc(N(C[C@@H](N)CC(C)C)C(=O)[C@@H]2C[C@H]2c2ccccc2)cc1
8.85 | CC(C)(N)CN(C(=O)[C@@H]1C[C@H]1c1ccccc1)c1ccc(-c2ccccc2)cc1
5.19 | CC[C@H](C)[C@H](N)CN(C(=O)[C@@H]1C[C@H]1c1ccccc1)c1ccc(-c2ccc(CNC)cc2)cc1
8.92 | CC(C)C[C@H](N)CN(C(=O)C(C)Cc1ccccc1)c1ccc(-c2ccccc2)cc1 (some centres undefined)
6.48 | COc1ccc(-c2ccc(N(C[C@@H](N)CC(C)C)C(=O)[C@@H]3C[C@H]3c3ccccc3)cc2)cc1
5.89 | CC[C@H](C)[C@H](N)CN(C(=O)[C@@H]1C[C@H]1c1ncc(C)s1)c1ccc(-c2ccccc2)cc1
6.17 | CC(C)C[C@H](N)CN(C(=O)[C@@H]1C[C@H]1c1ccccc1)c1ccc(-c2ccc(C#N)cc2)cc1
6.34 | CC[C@H](C)[C@H](N)CN(C(=O)[C@@H]1C[C@H]1c1ccccc1)c1ccc(-c2ccc(CN(C)C)cc2)cc1
5.52 | CC[C@H](C)[C@H](N)CN(C(=O)[C@@H]1C[C@H]1c1cccc(OC)c1)c1ccc(-c2ccccc2)cc1
4.64 | CC(C)C[C@H](N)CN(C(=O)[C@@H]1C[C@H]1c1ccccc1)c1cccc(-c2ccccc2)c1
< 4.60 | CC[C@H](C)[C@H](N)CN(C(=O)[C@@H]1C[C@H]1c1ccc(OC)cc1)c1ccc(-c2ccccc2)cc1
8.60 | O=C([C@@H]1C[C@H]1c1ccccc1)N(CCNCC1CCCC1)c1ccc(-c2ccccc2)cc1
5.92 | CC(C)C[C@H](N)CN(C(=O)[C@@H]1C[C@H]1c1ccccc1)c1ccc(C2=CCCCC2)cc1
5.92 | CC[C@H](C)[C@H](N)CN(C(=O)[C@@H]1C[C@H]1c1cccc(C)c1)c1ccc(-c2ccccc2)cc1
6.11 | CC[C@H](C)[C@H](N)CN(C(=O)[C@@H]1C[C@H]1c1cc(F)ccc1F)c1ccc(-c2ccccc2)cc1

pEC50 | SMILES
6.10 | CC[C@H](C)[C@H](N)CN(C(=O)[C@@H]1C[C@H]1c1ccccc1)c1ccc(-c2ccccc2)cc1 (racemic)
6.12 | CC[C@H](C)[C@H](N)CN(C(=O)[C@@H]1C[C@H]1c1ccccc1)c1ccc(-c2ccc(C(C)(C)C)cc2)cc1
6.25 | CC[C@H](C)[C@H](N)CN(C(=O)[C@@H]1C[C@H]1c1cccc(F)c1)c1ccc(-c2ccccc2)cc1
7.14 | CC[C@H](C)[C@H](N)CN(C(=O)[C@@H]1C[C@H]1c1ccccc1)c1ccc(-c2ccc(OC(C)C)cc2)cc1
6.14 | CC[C@H](C)[C@H](N)CN(C(=O)[C@@H]1C[C@H]1c1ccc(F)c(F)c1)c1ccc(-c2ccccc2)cc1
5.92 | CC[C@H](C)[C@H](N)CN(C(=O)[C@H]1C[C@@H]1c1ccccn1)c1ccc(-c2ccc(COC)cc2)cc1
6.19 | CC[C@H](C)[C@H](N)CN(C(=O)[C@@H]1C[C@H]1c1ccccc1F)c1ccc(-c2ccccc2)cc1
8.74 | CC(C)C[C@@H](N)CN(C(=O)[C@@H]1C[C@H]1c1ccccc1)c1ccc(-c2ccccc2)cc1
8.24 | CC[C@H](C)[C@@H](CN(C(=O)[C@@H]1C[C@H]1c1ccccc1)c1ccc(-c2ccccc2)cc1)NC(C)=O
6.96 | CC[C@H](C)[C@H](N)CN(C(=O)[C@@H]1C[C@H]1c1ccccc1)c1ccc(-c2ccc(CCC(=O)OC)cc2)cc1
5.92 | Cc1cccc(-c2ccc(N(C[C@@H](N)CC(C)C)C(=O)[C@@H]3C[C@H]3c3ccccc3)cc2)c1
5.82 | CC[C@H](C)[C@H](N)CN(C(=O)[C@@H]1C[C@H]1c1ccncc1)c1ccc(-c2ccccc2)cc1
8.18 | O=C([C@@H]1C[C@H]1c1ccccc1)N(CCNCC1CCCCC1)c1ccc(-c2ccccc2)cc1
9.17 | CO[C@H](C)[C@H](N)CN(C(=O)[C@@H]1C[C@H]1c1ccccc1)c1ccc(-c2ccccc2)cc1
4.72 | CC[C@H](C)[C@H](N)CN(C(=O)[C@@H]1C[C@H]1c1cncnc1)c1ccc(-c2ccccc2)cc1
5.82 | CC[C@H](C)[C@H](N)CN(C(=O)[C@@H]1C[C@H]1c1cccnc1)c1ccc(-c2ccccc2)cc1
8.96 | CC(C)[C@H](N)CN(C(=O)[C@@H]1C[C@H]1c1ccccc1)c1ccc(-c2ccccc2)cc1
5.42 | CC(C)C[C@H](N)CN(C(=O)[C@@H]1C[C@H]1c1ccccc1)c1ccc(-c2ccccc2Cl)cc1
8.85 | CC[C@@H](C)[C@H](N)CN(C(=O)[C@@H]1C[C@H]1c1ccccc1)c1ccc(-c2ccccc2)cc1
5.82 | CC[C@H](C)[C@H](N)CN(C(=O)[C@@H]1C[C@H]1c1csc(C)n1)c1ccc(-c2ccccc2)cc1
5.70 | CC(C)C[C@H](N)CN(C(=O)[C@@H]1C[C@H]1c1ccccc1)c1ccc(-c2ccoc2)cc1
6.35 | CC[C@H](C)[C@H](N)CN(C(=O)[C@@H]1C[C@H]1c1ccsc1)c1ccc(-c2ccccc2)cc1
5.92 | CC(C)C[C@H](N)CN(C(=O)[C@@H]1C[C@H]1c1ccccc1)c1ccc(-c2ccsc2)cc1
< 4.52 | CC[C@H](C)[C@H](N)CN(C(=O)[C@@H]1C[C@H]1c1ccccc1)c1ccc(-c2ccc(CN)cc2)cc1
5.66 | CC[C@H](C)[C@H](N)CN(C(=O)[C@@H]1C[C@H]1c1cccc(Cl)c1)c1ccc(-c2ccccc2)cc1
< 4.60 | CC[C@H](C)[C@H](N)CN(C(=O)[C@@H]1C[C@H]1C1CCCCC1)c1ccc(-c2ccccc2)cc1
5.21 | CC(C)C[C@H](N)CN(C(=O)[C@@H]1C[C@H]1c1ccccc1)c1ccccc1-c1ccccc1

pEC50 | SMILES
6.44 | CC[C@H](C)[C@H](N)CN(C(=O)[C@@H]1C[C@H]1c1cccs1)c1ccc(-c2ccccc2)cc1
6.22 | CC[C@H](C)[C@H](N)CN(C(=O)[C@@H]1C[C@H]1c1ccc(F)cc1)c1ccc(-c2ccccc2)cc1
6.49 | CC[C@H](C)[C@H](N)CN(C(=O)[C@@H]1C[C@H]1c1ccccc1)c1ccc(-c2ccc(N)cc2)cc1
6.47 | CC[C@H](C)[C@H](N)CN(C(=O)[C@@H]1C[C@H]1c1ccccc1)c1ccc(-c2ccc(C(F)(F)F)cc2)cc1
6.64 | CC[C@H](C)[C@H](N)CN(C(=O)[C@@H]1C[C@H]1c1ccccc1)c1ccc(-c2ccccc2)cc1
7.18 | CC[C@H](C)[C@H](N)CN(C(=O)[C@@H]1C[C@H]1c1ccccc1)c1ccc(-c2ccc(CC(=O)OC)cc2)cc1
6.89 | CC[C@H](C)[C@H](N)CN(C(=O)[C@@H]1C[C@H]1c1ncccn1)c1ccc(-c2ccccc2)cc1
5.89 | CC[C@H](C)[C@H](N)CN(C(=O)[C@@H]1C[C@H]1c1ccc(F)cc1F)c1ccc(-c2ccccc2)cc1
4.89 | CC(C)C[C@H](N)CN(C(=O)[C@@H]1C[C@H]1c1ccccc1)c1ccc(-c2ccncc2)cc1
8.70 | CCC(CC)C(N)CCN(C(=O)[C@@H]1C[C@H]1c1ccccc1)c1ccc(-c2ccccc2)cc1 (some centres undefined)
5.68 | CC(C)C[C@H](N)CN(C(=O)[C@@H]1C[C@H]1c1ccccc1)c1ccc(C2=CCCCCC2)cc1
5.92 | CC[C@H](C)[C@H](N)CN(C(=O)[C@@H]1C[C@H]1c1ccccc1)c1ccc(-c2ccc(NS(C)(=O)=O)cc2)cc1
5.00 | CC(C)C[C@H](N)CN(C(=O)[C@@H]1C[C@H]1c1ccccc1)c1ccc(-c2cccnc2)cc1
8.70 | CN[C@@H](CC(C)C)CN(C(=O)[C@@H]1C[C@H]1c1ccccc1)c1ccc(-c2ccccc2)cc1
5.44 | CC[C@H](C)[C@H](N)CN(C(=O)[C@@H]1C[C@H]1c1nc(C)c(C)s1)c1ccc(-c2ccccc2)cc1
7.46 | CC[C@H](C)[C@H](N)CN(C(=O)[C@@H]1C[C@H]1c1ccccc1)c1ccc(-c2ccc(COC)cc2)cc1
6.44 | Cc1ccc(-c2ccc(N(C[C@@H](N)CC(C)C)C(=O)[C@@H]3C[C@H]3c3ccccc3)cc2)cc1
8.52 | CC(C)C[C@H](N)CCN(C(=O)[C@@H]1C[C@H]1c1ccccc1)c1ccc(-c2ccccc2)cc1
7.82 | CC[C@H](C)[C@H](N)CN(C(=O)[C@@H]1C[C@H]1c1ccccn1)c1ccc(-c2ccc(COC)cc2)cc1
8.29 | CC(C)CCNCCN(C(=O)[C@@H]1C[C@H]1c1ccccc1)c1ccc(-c2ccccc2)cc1
6.02 | CC[C@H](C)[C@H](N)CN(C(=O)[C@@H]1C[C@H]1c1cc(F)cc(F)c1)c1ccc(-c2ccccc2)cc1
8.46 | CC[C@H](C)[C@H](N)CN(C(=O)[C@@H]1C[C@H]1c1ccccn1)c1ccc(-c2ccc(OC(C)C)cc2)cc1
5.47 | Cc1ccccc1-c1ccc(N(C[C@@H](N)CC(C)C)C(=O)[C@@H]2C[C@H]2c2ccccc2)cc1
5.37 | CC[C@H](C)[C@H](N)CN(C(=O)[C@@H]1C[C@H]1c1ccc(Cl)cc1)c1ccc(-c2ccccc2)cc1
5.82 | CC(C)C[C@H](N)CN(C(=O)[C@@H]1C[C@H]1c1ccccc1)c1ccc(-c2cccs2)cc1
